Columns and labels:
Test in all cases: relative viability (nuclei count vs DMSO), 5 days (fraction); higher = more cells survive
[1] = test system: HARA
Summary of the method: (§1)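 Lung cancer cell lines were seeded in 1536-well plates and dosed by pin tool the next day, with either a single drug or a fixed anchor-drug dose combined with five library-drug doses (not always all listed) spaced in √10 steps. Five days later, one step fixed the cells and stained their nuclei (final 0.05% Triton X-100, 1% formaldehyde, 1 ug/ml Hoechst), and nuclei were counted on 4× images. Relative viability is the nuclei count in treated wells divided by the count in vehicle wells, and each value is the median of duplicate plates.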

[2] = test system: NCI-H2126
Summary of the method: as §1

[3] = test system: LCLC-97TM1
Summary of the method: as §1

[4] = test system: HCC-827
Summary of the method: as §1

[5] = test system: NCI-H1792
Summary of the method: as §1

[6] = test system: NCI-H661
Summary of the method: as §1

[7] = test system: NCI-H1944
Summary of the method: as §1

[8] = test system: NCI-H23
Summary of the method: as §1

[9] = test system: SK-LU-1
Summary of the method: as §1

[10] = test system: LC-2-ad
Summary of the method: as §1

[11] = test system: EMC-BAC-2
Summary of the method: as §1

[12] = test system: NCI-H1437
Summary of the method: as §1

[13] = test system: EKVX
Summary of the method: as §1

[14] = test system: ChaGo-K-1
Summary of the method: as §1

[15] = test system: NCI-H1915
Summary of the method: as §1

[16] = test system: NCI-H460
Summary of the method: as §1

[17] = test system: LU99A
Summary of the method: as §1

[18] = test system: HCC-15
Summary of the method: as §1

[19] = test system: NCI-H322M
Summary of the method: as §1

[20] = test system: NCI-H441
Summary of the method: as §1

[21] = test system: PC-3 [JPC-3]
Summary of the method: as §1

[22] = test system: H3255
Summary of the method: as §1

[23] = test system: NCI-H1793
Summary of the method: as §1

O=C(O)CCCCC(CCSCc1ccccc1)SCc1ccccc1 (stereo not drawn) [CPI-613] + CCNC(=O)c1noc(-c2cc(C(C)C)c(O)cc2O)c1-c1ccc(CN2CCOCC2)cc1 [Luminespib] (partner 0.01 µM)
relative viability ([1]; first compound 15.81 µM): 0.635 | relative viability ([1]; first compound 50 µM): 0.757 | relative viability ([1]; first compound 158.11 µM): 0.297 | relative viability ([1]; first compound 500 µM): 0.0024 | relative viability ([2]; first compound 5 µM): 0.906 | relative viability ([2]; first compound 15.81 µM): 0.83 | relative viability ([2]; first compound 50 µM): 0.85 | relative viability ([2]; first compound 158.11 µM): 0.223 | relative viability ([2]; first compound 500 µM): 0.053 | relative viability ([3]; first compound 5 µM): 0.641 | relative viability ([3]; first compound 15.81 µM): 0.71 | relative viability ([3]; first compound 50 µM): 0.737 | relative viability ([3]; first compound 158.11 µM): 0.188 | relative viability ([3]; first compound 500 µM): 0.0176 | relative viability ([4]; first compound 5 µM): 0.416 | relative viability ([4]; first compound 15.81 µM): 0.615 | relative viability ([4]; first compound 50 µM): 0.774 | relative viability ([4]; first compound 158.11 µM): 0.633 | relative viability ([4]; first compound 500 µM): 0.329 | relative viability ([5]; first compound 5 µM): 0.512 | relative viability ([5]; first compound 15.81 µM): 0.396 | relative viability ([5]; first compound 50 µM): 0.375 | relative viability ([5]; first compound 158.11 µM): 0.353 | relative viability ([5]; first compound 500 µM): 0.39 | relative viability ([6]; first compound 5 µM): 0.887 | relative viability ([6]; first compound 15.81 µM): 0.904 | relative viability ([6]; first compound 50 µM): 0.916 | relative viability ([6]; first compound 158.11 µM): 0.468 | relative viability ([6]; first compound 500 µM): 0.141 | relative viability ([7]; first compound 5 µM): 0.748 | relative viability ([7]; first compound 15.81 µM): 0.701 | relative viability ([7]; first compound 50 µM): 0.757 | relative viability ([7]; first compound 158.11 µM): 0.409 | relative viability ([7]; first compound 500 µM): 0.0599 | relative viability ([8]; first compound 5 µM): 0.224 | relative viability ([8]; first compound 15.81 µM): 0.222 | relative viability ([8]; first compound 50 µM): 0.234 | relative viability ([8]; first compound 158.11 µM): 0.129 | relative viability ([8]; first compound 500 µM): 0.0632 | relative viability ([9]; first compound 5 µM): 0.205 | relative viability ([9]; first compound 15.81 µM): 0.2 | relative viability ([9]; first compound 50 µM): 0.198 | relative viability ([9]; first compound 158.11 µM): 0.128 | relative viability ([9]; first compound 500 µM): 0.101 | relative viability ([10]; first compound 5 µM): 1.02 | relative viability ([10]; first compound 15.81 µM): 0.958 | relative viability ([10]; first compound 50 µM): 0.847 | relative viability ([10]; first compound 158.11 µM): 0.235 | relative viability ([10]; first compound 500 µM): 0.0688 | relative viability ([11]; first compound 5 µM): 1.15 | relative viability ([11]; first compound 15.81 µM): 1.08 | relative viability ([11]; first compound 50 µM): 1.16 | relative viability ([11]; first compound 158.11 µM): 0.396 | relative viability ([11]; first compound 500 µM): 0.0424 | relative viability ([12]; first compound 5 µM): 1.09 | relative viability ([12]; first compound 15.81 µM): 1.04 | relative viability ([12]; first compound 50 µM): 1.07 | relative viability ([12]; first compound 158.11 µM): 0.53 | relative viability ([12]; first compound 500 µM): 0.0571 | relative viability ([13]; first compound 5 µM): 0.834 | relative viability ([13]; first compound 15.81 µM): 0.881 | relative viability ([13]; first compound 50 µM): 0.864 | relative viability ([13]; first compound 158.11 µM): 0.814 | relative viability ([13]; first compound 500 µM): 0.803 | relative viability ([14]; first compound 5 µM): 0.533 | relative viability ([14]; first compound 15.81 µM): 0.61 | relative viability ([14]; first compound 50 µM): 0.596 | relative viability ([14]; first compound 158.11 µM): 0.204 | relative viability ([14]; first compound 500 µM): 0.11 | relative viability ([15]; first compound 5 µM): 0.746 | relative viability ([15]; first compound 15.81 µM): 0.841 | relative viability ([15]; first compound 50 µM): 0.675 | relative viability ([15]; first compound 158.11 µM): 0.161 | relative viability ([15]; first compound 500 µM): 0.0405 | relative viability ([16]; first compound 5 µM): 0.0325 | relative viability ([16]; first compound 15.81 µM): 0.0279 | relative viability ([16]; first compound 50 µM): 0.0372 | relative viability ([16]; first compound 158.11 µM): 0.0145 | relative viability ([16]; first compound 500 µM): 0.0162 | relative viability ([17]; first compound 5 µM): 0.296 | relative viability ([17]; first compound 15.81 µM): 0.222 | relative viability ([17]; first compound 50 µM): 0.243 | relative viability ([17]; first compound 158.11 µM): 0.159 | relative viability ([17]; first compound 500 µM): 0.115 | relative viability ([18]; first compound 5 µM): 0.297 | relative viability ([18]; first compound 15.81 µM): 0.424 | relative viability ([18]; first compound 50 µM): 0.304 | relative viability ([18]; first compound 158.11 µM): 0.0775 | relative viability ([18]; first compound 500 µM): 0.0498 | relative viability ([19]; first compound 5 µM): 0.777 | relative viability ([19]; first compound 15.81 µM): 0.781 | relative viability ([19]; first compound 50 µM): 0.826 | relative viability ([19]; first compound 158.11 µM): 0.53 | relative viability ([19]; first compound 500 µM): 0.0612 | relative viability ([20]; first compound 5 µM): 0.36 | relative viability ([20]; first compound 15.81 µM): 0.38 | relative viability ([20]; first compound 50 µM): 0.289 | relative viability ([20]; first compound 158.11 µM): 0.124 | relative viability ([20]; first compound 500 µM): 0.0495 | relative viability ([21]; first compound 5 µM): 0.594 | relative viability ([21]; first compound 15.81 µM): 0.578 | relative viability ([21]; first compound 50 µM): 0.627 | relative viability ([21]; first compound 158.11 µM): 0.563 | relative viability ([21]; first compound 500 µM): 0.48 | relative viability ([22]; first compound 5 µM): 0.822 | relative viability ([22]; first compound 15.81 µM): 0.802 | relative viability ([22]; first compound 50 µM): 0.879 | relative viability ([22]; first compound 500 µM): 0.878 | relative viability ([23]; first compound 5 µM): 0.252 | relative viability ([23]; first compound 15.81 µM): 0.372 | relative viability ([23]; first compound 50 µM): 0.175 | relative viability ([23]; first compound 158.11 µM): 0.131 | relative viability ([23]; first compound 500 µM): 0.0028
